From ChEMBL document CHEMBL1955750, “Benzodiazepines and benzotriazepines as protein interaction inhibitors targeting bromodomains of the BET family” (Bioorg Med Chem, 2012)

How the values were obtained:
[1] = biological target: Bromodomain-containing protein 2 (Homo sapiens) (UniProt P25440); assay: Binding affinity to BRD2-BD1 assessed as change in melting temperature at 100 uM by protein stability shift assay
[2] = biological target: Bromodomain-containing protein 3 (Homo sapiens) (UniProt Q15059); assay: Binding affinity to BRD3-BD1 assessed as change in melting temperature at 100 uM by protein stability shift assay
[3] = biological target: T1, Bromodomain-containing protein 4 (Homo sapiens, UniProt O60885); assay: Binding affinity to BRD4-BD1 assessed as change in melting temperature at 100 uM by protein stability shift assay
[4] = biological target: Bromodomain testis-specific protein (Homo sapiens) (UniProt Q58F21); assay: Binding affinity to BRDT-BD1 assessed as change in melting temperature at 100 uM by protein stability shift assay
[5] = biological target: Bromodomain adjacent to zinc finger domain protein 2B (Homo sapiens) (UniProt Q9UIF8); assay: Binding affinity to BAZ2B assessed as change in melting temperature at 100 uM by protein stability shift assay
[6] = biological target: CREB-binding protein (Homo sapiens) (UniProt Q92793); assay: Binding affinity to CREBBP assessed as change in melting temperature at 100 uM by protein stability shift assay
Chain of CREB-binding protein (Homo sapiens) (Q92793 2-2442 limits assumed): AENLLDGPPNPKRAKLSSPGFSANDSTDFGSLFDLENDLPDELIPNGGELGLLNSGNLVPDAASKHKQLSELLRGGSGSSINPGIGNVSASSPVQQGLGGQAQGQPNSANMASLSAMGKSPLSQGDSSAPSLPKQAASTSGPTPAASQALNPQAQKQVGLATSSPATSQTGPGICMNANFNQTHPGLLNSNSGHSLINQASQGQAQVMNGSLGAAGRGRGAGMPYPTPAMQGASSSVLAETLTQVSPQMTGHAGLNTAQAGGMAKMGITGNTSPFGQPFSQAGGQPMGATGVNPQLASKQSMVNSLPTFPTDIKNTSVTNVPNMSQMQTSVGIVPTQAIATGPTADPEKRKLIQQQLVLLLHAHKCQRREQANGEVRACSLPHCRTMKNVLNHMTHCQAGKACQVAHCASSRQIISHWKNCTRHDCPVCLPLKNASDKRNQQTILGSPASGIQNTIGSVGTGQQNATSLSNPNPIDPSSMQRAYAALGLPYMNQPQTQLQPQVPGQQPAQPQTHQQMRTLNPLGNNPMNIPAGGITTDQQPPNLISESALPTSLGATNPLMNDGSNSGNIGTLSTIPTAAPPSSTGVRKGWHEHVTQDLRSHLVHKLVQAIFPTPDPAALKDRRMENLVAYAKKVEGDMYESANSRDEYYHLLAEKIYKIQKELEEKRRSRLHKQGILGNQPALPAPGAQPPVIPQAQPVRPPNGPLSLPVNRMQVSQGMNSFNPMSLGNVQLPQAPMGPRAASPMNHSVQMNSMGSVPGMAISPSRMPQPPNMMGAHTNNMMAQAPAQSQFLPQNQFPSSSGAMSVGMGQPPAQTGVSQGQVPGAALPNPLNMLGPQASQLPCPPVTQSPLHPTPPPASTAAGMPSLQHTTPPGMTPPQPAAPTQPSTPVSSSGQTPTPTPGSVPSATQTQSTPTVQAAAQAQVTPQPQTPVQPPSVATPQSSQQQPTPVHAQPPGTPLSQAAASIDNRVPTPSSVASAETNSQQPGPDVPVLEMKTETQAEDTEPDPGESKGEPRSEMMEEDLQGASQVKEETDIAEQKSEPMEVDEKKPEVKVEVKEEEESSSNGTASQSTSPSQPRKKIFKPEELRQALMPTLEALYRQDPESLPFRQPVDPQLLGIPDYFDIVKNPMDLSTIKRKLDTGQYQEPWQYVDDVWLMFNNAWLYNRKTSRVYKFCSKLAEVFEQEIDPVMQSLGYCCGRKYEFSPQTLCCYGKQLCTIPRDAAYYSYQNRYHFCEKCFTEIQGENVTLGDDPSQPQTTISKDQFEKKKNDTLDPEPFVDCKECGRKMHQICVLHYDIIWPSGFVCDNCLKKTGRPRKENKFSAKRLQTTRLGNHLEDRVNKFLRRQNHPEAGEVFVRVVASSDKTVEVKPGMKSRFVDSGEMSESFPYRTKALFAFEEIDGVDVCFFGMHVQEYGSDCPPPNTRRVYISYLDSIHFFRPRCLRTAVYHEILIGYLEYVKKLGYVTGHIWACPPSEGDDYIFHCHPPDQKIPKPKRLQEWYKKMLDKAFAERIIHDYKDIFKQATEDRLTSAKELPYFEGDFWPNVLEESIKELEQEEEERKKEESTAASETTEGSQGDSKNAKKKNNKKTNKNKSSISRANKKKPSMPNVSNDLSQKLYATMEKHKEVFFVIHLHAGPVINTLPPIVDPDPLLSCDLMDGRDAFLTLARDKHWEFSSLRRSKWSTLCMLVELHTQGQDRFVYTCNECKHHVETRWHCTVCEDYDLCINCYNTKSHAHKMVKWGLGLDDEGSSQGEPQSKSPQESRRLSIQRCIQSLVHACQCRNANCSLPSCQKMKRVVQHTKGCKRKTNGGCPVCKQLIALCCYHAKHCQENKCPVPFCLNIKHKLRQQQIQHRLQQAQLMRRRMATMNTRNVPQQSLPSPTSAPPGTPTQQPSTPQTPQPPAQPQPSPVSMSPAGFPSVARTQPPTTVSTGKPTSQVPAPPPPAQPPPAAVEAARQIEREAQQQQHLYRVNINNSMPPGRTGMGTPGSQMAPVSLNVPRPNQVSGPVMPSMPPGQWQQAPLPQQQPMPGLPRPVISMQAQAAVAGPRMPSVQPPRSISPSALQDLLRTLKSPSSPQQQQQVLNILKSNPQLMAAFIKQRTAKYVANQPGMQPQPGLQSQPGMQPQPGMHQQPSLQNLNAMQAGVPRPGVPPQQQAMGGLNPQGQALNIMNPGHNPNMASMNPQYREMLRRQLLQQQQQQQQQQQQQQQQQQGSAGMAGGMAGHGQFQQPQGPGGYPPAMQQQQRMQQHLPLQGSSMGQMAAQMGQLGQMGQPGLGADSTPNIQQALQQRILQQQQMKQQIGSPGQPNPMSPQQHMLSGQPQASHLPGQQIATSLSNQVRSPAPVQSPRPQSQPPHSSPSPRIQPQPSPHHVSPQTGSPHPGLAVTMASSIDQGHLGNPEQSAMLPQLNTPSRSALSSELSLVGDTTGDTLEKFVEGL

[7] = Binding affinity to LOC93349 assessed as change in melting temperature at 100 uM by protein stability shift assay
[8] = biological target: Protein polybromo-1 (Homo sapiens) (UniProt Q86U86); assay: Binding affinity to PB1 assessed as change in melting temperature at 100 uM by protein stability shift assay
Chain of Protein polybromo-1 (Homo sapiens) (Q86U86 whole entry): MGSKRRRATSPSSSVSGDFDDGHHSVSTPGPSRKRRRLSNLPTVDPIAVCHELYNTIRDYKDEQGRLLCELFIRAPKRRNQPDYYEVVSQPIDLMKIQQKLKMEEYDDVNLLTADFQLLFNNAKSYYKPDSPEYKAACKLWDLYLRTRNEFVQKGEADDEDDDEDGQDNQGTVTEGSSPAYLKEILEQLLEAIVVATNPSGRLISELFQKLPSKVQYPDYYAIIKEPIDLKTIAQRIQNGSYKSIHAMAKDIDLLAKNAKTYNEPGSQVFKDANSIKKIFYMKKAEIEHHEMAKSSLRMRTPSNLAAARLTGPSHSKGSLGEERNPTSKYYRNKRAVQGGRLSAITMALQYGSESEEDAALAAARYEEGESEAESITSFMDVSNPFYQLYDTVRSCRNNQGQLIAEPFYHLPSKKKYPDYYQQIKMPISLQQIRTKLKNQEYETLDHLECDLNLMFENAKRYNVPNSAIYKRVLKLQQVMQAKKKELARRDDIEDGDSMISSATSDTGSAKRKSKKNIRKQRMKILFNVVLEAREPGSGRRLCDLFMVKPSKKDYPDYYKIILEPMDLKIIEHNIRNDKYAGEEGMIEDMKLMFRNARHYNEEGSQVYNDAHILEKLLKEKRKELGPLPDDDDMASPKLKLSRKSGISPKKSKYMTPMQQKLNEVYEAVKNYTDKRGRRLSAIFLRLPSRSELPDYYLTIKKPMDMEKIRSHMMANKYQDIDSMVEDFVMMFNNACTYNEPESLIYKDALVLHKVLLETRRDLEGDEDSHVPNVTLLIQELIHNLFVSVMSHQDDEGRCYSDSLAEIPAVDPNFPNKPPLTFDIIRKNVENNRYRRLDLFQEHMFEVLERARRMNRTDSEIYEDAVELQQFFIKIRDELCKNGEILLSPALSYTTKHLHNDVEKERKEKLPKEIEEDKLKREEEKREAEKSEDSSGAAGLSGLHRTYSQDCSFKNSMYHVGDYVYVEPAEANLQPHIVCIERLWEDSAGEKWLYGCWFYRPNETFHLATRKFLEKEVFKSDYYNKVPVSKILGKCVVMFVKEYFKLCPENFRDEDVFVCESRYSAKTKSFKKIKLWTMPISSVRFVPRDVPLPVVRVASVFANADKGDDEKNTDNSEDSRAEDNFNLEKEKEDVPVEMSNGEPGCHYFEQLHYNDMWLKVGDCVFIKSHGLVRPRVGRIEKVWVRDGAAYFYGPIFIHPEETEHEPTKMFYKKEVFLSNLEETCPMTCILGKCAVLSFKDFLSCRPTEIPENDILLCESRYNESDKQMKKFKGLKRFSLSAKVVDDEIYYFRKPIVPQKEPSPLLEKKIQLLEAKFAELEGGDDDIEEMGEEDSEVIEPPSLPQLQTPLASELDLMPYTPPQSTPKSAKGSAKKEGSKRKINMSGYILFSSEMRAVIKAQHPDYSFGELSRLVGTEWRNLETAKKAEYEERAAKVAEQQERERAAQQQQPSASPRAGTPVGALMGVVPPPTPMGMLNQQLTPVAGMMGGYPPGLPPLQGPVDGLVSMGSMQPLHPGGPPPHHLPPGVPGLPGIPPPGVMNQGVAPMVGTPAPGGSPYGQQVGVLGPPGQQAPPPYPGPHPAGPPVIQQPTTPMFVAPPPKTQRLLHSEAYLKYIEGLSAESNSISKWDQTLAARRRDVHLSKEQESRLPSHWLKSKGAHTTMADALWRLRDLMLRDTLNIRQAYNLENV

[9] = biological target: Histone acetyltransferase KAT2B (Homo sapiens) (UniProt Q92831); assay: Binding affinity to PCAF assessed as change in melting temperature at 100 uM by protein stability shift assay
Chain of Histone acetyltransferase KAT2B (Homo sapiens) (Q92831 whole entry, looked up): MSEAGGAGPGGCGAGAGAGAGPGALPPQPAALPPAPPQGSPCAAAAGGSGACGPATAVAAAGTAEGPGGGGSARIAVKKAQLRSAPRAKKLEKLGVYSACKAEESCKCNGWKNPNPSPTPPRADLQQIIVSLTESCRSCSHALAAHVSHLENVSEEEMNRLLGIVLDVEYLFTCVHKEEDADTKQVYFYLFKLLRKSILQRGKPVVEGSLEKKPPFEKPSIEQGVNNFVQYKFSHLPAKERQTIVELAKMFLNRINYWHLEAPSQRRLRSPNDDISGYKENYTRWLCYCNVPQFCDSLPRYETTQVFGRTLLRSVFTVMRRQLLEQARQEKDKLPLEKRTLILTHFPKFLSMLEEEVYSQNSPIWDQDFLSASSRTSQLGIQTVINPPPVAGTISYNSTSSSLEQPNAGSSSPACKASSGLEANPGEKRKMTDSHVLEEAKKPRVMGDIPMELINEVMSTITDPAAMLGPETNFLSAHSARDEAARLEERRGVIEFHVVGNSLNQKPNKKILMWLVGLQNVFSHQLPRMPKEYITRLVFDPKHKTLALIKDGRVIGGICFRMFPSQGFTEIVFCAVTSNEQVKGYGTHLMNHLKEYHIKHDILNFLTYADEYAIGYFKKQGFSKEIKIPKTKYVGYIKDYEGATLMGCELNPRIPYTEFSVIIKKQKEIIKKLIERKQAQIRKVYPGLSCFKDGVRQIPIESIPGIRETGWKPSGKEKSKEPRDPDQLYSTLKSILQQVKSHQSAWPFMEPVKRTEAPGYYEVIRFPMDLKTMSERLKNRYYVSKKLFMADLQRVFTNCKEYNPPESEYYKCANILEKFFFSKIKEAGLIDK

[10] = biological target: Bromodomain-containing protein 2 (Homo sapiens) (UniProt P25440); assay: Binding affinity to BRD2-BD2 assessed as change in melting temperature at 100 uM by protein stability shift assay
[11] = biological target: Bromodomain-containing protein 3 (Homo sapiens) (UniProt Q15059); assay: Binding affinity to BRD3-BD2 assessed as change in melting temperature at 100 uM by protein stability shift assay
[12] = biological target: T1, Bromodomain-containing protein 4; assay: Binding affinity to BRD4-BD2 assessed as change in melting temperature at 100 uM by protein stability shift assay

Measured: ΔTm

CCC1=NCc2nnc(-c3ccccc3)n2-c2ccc(Cl)cc21
< 2 °C: [1] | [2] | [3] | [4] | [5] | [6] | [7] | [8] | [9] | [10] | [11] | [12]

CCC1=NCc2nnc(-c3cccc(OC)c3)n2-c2ccc(Cl)cc21
< 2 °C: [1] | [2] | [3] | [4] | [5] | [6] | [7] | [8] | [9] | [10] | [11] | [12]

CCC1=NCc2nnc(CC)n2-c2ccc(Cl)cc21
< 2 °C: [1] | [2] | [3] | [4] | [5] | [6] | [7] | [8] | [9] | [10] | [11] | [12]

CN1N=C(c2ccccc2)c2cc(Cl)ccc2-n2c1n[nH]c2=O
< 2 °C: [1] | [2] | [3] | [4] | [5] | [6] | [7] | [8] | [9] | [10] | [11] | [12]

CN1N=C(c2ccccc2)c2cc(Cl)ccc2-n2c(N)nnc21
< 2 °C: [1] | [2] | [3] | [4] | [5] | [6] | [7] | [8] | [9] | [10] | [11] | [12]

CC(=O)NNC1=Nc2ccc(Cl)cc2C(c2ccccc2)=NN1C
< 2 °C: [1] | [2] | [3] | [4] | [5] | [6] | [7] | [8] | [9] | [10] | [11] | [12]

CCC1=NCC(=O)Nc2ccc(Cl)cc21
< 2 °C: [1] | [2] | [3] | [4] | [5] | [6] | [7] | [8] | [9] | [10] | [11] | [12]

CCC1=NCc2nnc(C)n2-c2ccc(Cl)cc21
< 2 °C: [1] | [2] | [3] | [4] | [5] | [6] | [7] | [8] | [9] | [10] | [11] | [12]
